Data on seven molecules can be found in publication PMC3807845 (The Journal of Physical Chemistry. B, 2013).

Several values for one entry are separate records, joined by “and”; a condition that tells them apart may be missing. Equal entries are not always repeated. Where two headings read alike, the source gives them in different places. Ends that are not written are not given here. * marks the point of attachment. FITC = O=C1OC2(c3ccc(O)cc3Oc3cc(O)ccc32)c2ccc(NC(=S)*)cc21 A value given as a limit tells only on which side of the number the result lay.

For data set [1], the target named is T1, KIX domain of mouse CBP (Mus musculus, UniProt P45481).
T1 construct: KIX domain of mouse CBP (Uniprot 45481, residues 586–672); hexahistidine tag with thrombin cleavage site (N, cleaved yes); made in house; host or cells: Escherichia coli C41 (DE3)
T1 sequence (P45481 586-672): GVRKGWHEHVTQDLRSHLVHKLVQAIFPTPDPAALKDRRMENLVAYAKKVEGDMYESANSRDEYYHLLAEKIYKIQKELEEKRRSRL
In words: Stopped-flow anisotropy kinetics, temperature dependence. Format: binding. On the procedure: The synthetic gene for the KIX domain of mouse CBP (Uniprot 45481, residues 586–672) was obtained from Genscript. The gene was inserted into a modified version of the pRSET A vector that encodes an N-terminal hexahistidine tag with a thrombin cleavage site between the tag and the protein. Protein expression was carried out in Escherichia coli C41 (DE3) grown in 2xTY media at 37 °C. Expression was induced once the cells reached an optical density of 0.4–0.6 AU at 600 nm, by adding IPTG to a final concentration of 0.1 mM and reducing the temperature to 18 °C. The cells were grown overnight and harvested by centrifugation. […] Bound protein was eluted with 250 mM imidazole, and the his-tag cleaved by overnight incubation with thrombin at room temperature. The protein was further purified by gel filtration using a Superdex G75 column in pH 7.4 100 mM sodium phosphate buffer. For ionic strength studies, KIX protein was buffer exchanged and stored in ddH2O. The concentration of KIX stocks was determined using an extinction coefficient of 12 009 M^–1 cm^–1 at 280 nm obtained by the method of Gill von Hippel.[18]
N-terminally labeled FITC-cMyb peptide (Uniprot P06876, residues 291–315) was purchased from Biomatik. 1 mg aliquots were dissolved at 1–2 mg/mL in ddH2O as required. The stock concentration was determined from the absorbance at 493 nm of a 20-fold dilution into biophysical buffer, using an extinction coefficient of 75 000 M^–1 cm^–1. Sodium phosphate, MOPS, and sodium chloride were purchased from Sigma. […]
Association kinetics were monitored by following the change in anisotropy of FITC-cMyb on binding using a SX20 stopped-flow spectrometer (Applied Photophysics) with an FP1 fluorescence polarization accessory. […] Anisotropy values reported from stopped-flow have not been corrected for background fluorescence.
In temperature studies, KIX solutions of various concentrations were mixed 1:1 with 1 μM FITC-cMyb. […] Dissociation rate constants (koff) were calculated from the relation koff = Kdkon, which is appropriate for two-state bimolecular reactions (see Results). […]

Data set [2] deals with T1, KIX domain of mouse CBP. Kind of data set: Stopped-flow anisotropy kinetics, ionic strength dependence (MOPS). In kind it is binding. As to the method: Two separate buffer types were utilized in these studies. First, 100 mM sodium phosphate buffer, pH 7.4, the pH of which is relatively insensitive to temperature changes, was used for the temperature studies. Second, 20 mM MOPS (pH 7.30 ± 0.02 at 10 °C) with a range of sodium chloride concentrations was used in ionic strength studies. MOPS buffers in the same range as phosphate but has a lower ionic strength because of its lower valency, enabling a larger range of ionic strengths to be investigated. We observed that the rate of association was slightly lower in phosphate buffer, considering our estimates of its ionic strength. In addition, 0.05% tween-20 was included in all biophysical buffers to avoid nonspecific interactions with plastic-ware.
In preparing solutions for kinetic assays, dilutions of KIX and FITC-cMyb stocks were weighed, so that accurate concentrations (accounting for solution density) were obtained.
Association kinetics were monitored by following the change in anisotropy of FITC-cMyb on binding using a SX20 stopped-flow spectrometer (Applied Photophysics) with an FP1 fluorescence polarization accessory. […] Anisotropy values reported from stopped-flow have not been corrected for background fluorescence. […]
The variation in association rate constant with ionic strength (I) was modeled with a Debye–Huckel-like approximation that has been determined empirically (eq 4).[24] […]

For data set [3] the following is noted: cited from earlier work. On the procedure:
The charge on KIX and cMyb at pH 7.4 was estimated using average pKa values reported for amino acids in globular proteins and model peptides.[54] The charge for FITC-cMyb was corrected to account for N-terminal addition of FITC. At pH 7.3–7.4 and 25 °C, fluoroscein exists predominantly as a dianion (∼90%), with some anion (∼10%), the equilibrium between the two species being described by a protolytic constant of 6.43.[27]

Data set [4] in a line: Circular dichroism, secondary structure. In kind it is physicochemical. The note with it: CD. As to the method: Circular dichroism (CD) scans were performed with an Applied Photophysics Chirascan, in cuvettes of 1 or 0.2 mm path length. In mixing experiments, individual solutions of FITC-cMyb and KIX in pH 7.4 100 mM sodium phosphate (0.05% tween-20) were prepared, and aliquots removed for mixing in a 1:1 ratio. Spectra were obtained for all three solutions and buffer subtracted. The expected spectrum in the absence of protein interaction was calculated as the average of the two spectra for the individual protein solutions. Helical content for FITC-cMyb alone was variously estimated as 28, 30, and 37% using the methods of Perez-Iratxeta et al.,[19] Morriset et al.,[20] and Chen et al.,[21] respectively.
Background: CD spectra are sensitive to the conformation of chiral molecules.

The target in another data set is CBP KIX (Mus musculus) (UniProt P45481). Particulars: cited from earlier work.
CBP KIX (Mus musculus), sequence (P45481 583-668): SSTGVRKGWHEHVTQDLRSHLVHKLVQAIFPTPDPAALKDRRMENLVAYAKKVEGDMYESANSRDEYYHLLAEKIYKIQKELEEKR
Data set [5] has as its system pseudo-wild-type of KIX with a single point tryptophan mutation in the binding site (and an attached his-tag). Particulars: cited from earlier work. The text has this: Association kinetics for this complex have recently been reported by Gianni et al., for a pseudo-wild-type of KIX with a single point tryptophan mutation in the binding site (and an attached his-tag).[46] […] After correction for the expected number of molecule collisions, the rate is still temperature dependent (Figure 3), which indicates the presence of an activation barrier that slows the association process. We stop short of interpreting the gradient of this plot (10.9 ± 0.7 kcal/mol) as the enthalpic barrier for folding. First, from CD denaturation studies (Figure S4, Supporting Information), it is clear that even over this narrow range of temperature there are conformatio ...

In data set [6] the test system is KIX. Particulars: NMR structure of the complex; cited from earlier work. From the text: We confirmed this increase in helicity on binding by comparing CD measurements of the individual components and mixtures ...
Data set [7] deals with KIX. Particulars: pH 7, 27 °C; read-out: dissociation constant of unlabeled cMyb by ITC; cited from earlier work. From the text: Second, the peptide was still observed to bind to KIX protein. On mixing FITC-cMyb with KIX, a reliable increase in the an ...
In general terms: Isothermal titration calorimetry measures the heat released or taken up as one component is titrated into another.

The test system of another data set is barnase. Particulars: with barnase, cited from earlier work. The text has this: Although these rates are fast, they are nothing remarkable in themselves. […] The most famous example of such rate enhancement is for the two folded proteins barnase and barstar, which have been described as “ultrafast” associating proteins. At low ionic strengths, the reported kon is over 5 × 10^9 M^–1 s^–1; however, extrapolation to infinite ionic strength to obtain an esti ...

The target of data set [8] is KIX domain of mouse CBP (residues 586-672) (mouse, UniProt P45481 586-672). Kind of data set: fluorescence polarisation; equilibrium anisotropy; 1 uM FITC-cMyb incubated 1 h with varying concentrations of KIX; 100 mM sodium phosphate pH 7.4, 0.05% tween-20; 25 °C; fit to eq 2. Particulars: both partners purified. (In general: In fluorescence polarisation assays a small probe gives low polarisation when free and higher when bound to something large.)
KIX domain of mouse CBP (residues 586-672), sequence (P45481 586-672): as the sequence (P45481 586-672) above

With `CC[C@H](C)[C@H](NC(=O)[C@H](CCCNC(=N)N)NC(=O)[C@H](CCCCN)NC(=O)[C@H](CCC(=O)O)NC(=O)[C@H](CCCCN)NC(=S)Nc1ccc2c(c1)C(=O)OC21c2ccc(O)cc2Oc2cc(O)ccc21)C(=O)N[C@@H](CCCCN)C(=O)N[C@@H](CCC(=O)O)C(=O)N[C@@H](CC(C)C)C(=O)N[C@@H](CCC(=O)O)C(=O)N[C@@H](CC(C)C)C(=O)N[C@@H](CC(C)C)C(=O)N[C@@H](CC(C)C)C(=O)N[C@@H](CCSC)C(=O)N[C@@H](CO)C(=O)N[C@H](C(=O)N[C@@H](CCC(=O)O)C(=O)N[C@@H](CC(N)=O)C(=O)N[C@@H](CCC(=O)O)C(=O)N[C@@H](CC(C)C)C(=O)N[C@@H](CCCCN)C(=O)NCC(=O)N[C@@H](CCC(N)=O)C(=O)N[C@@H](CCC(N)=O)C(=O)N[C@@H](C)C(=O)N[C@@H](CC(C)C)C(=O)O)[C@@H](C)O` [FITC-cMyb], the koff is 230 ± 20 s⁻¹ at KIX domain of mouse CBP [1] (25 °C, extrapolated from temperature dependence, pH 7.4 100 mM sodium phosphate, read-out: koff extrapolated to 25 °C) and more than 300 s⁻¹ at KIX domain of mouse CBP [1] (physiological conditions, expected, read-out: dissociation rate under physiological conditions). Also, the kon on KIX domain of mouse CBP [1] (pH 7.4, read-out: kon extrapolated to 25 °C) is approximately 2.2e+07 M⁻¹ s⁻¹; on KIX domain of mouse CBP [2] (25 °C, from 10 °C basal rate and temperature dependence study, read-out: basal association rate constant estimated at 25 °C), 2.1e+07 M⁻¹ s⁻¹; at KIX domain of mouse CBP [2] (pH 7.3, 10 °C, 20 mM MOPS pH 7.30, extrapolated with Debye–Huckel-like approximation (eq 4), read-out: basal association rate constant (infinite ionic strength)), 7.7e+06 M⁻¹ s⁻¹.

With `O=C1OC2(c3ccc(O)cc3Oc3cc(O)ccc32)c2ccccc21` [fluoroscein], the “protolytic constant (dianion/anion)” value in data set [3] (25 °C) is listed as 6.43. In addition, in [3] (pH 7.3–7.4, 25 °C), the fraction as anion was approximately 10% and the fraction as dianion is recorded as approximately 90%.

Take “KIX: KIX domain of mouse CBP (Uniprot 45481, residues 586–672)”: in data set [4] (10 to 80 °C, indicative of aggregation at higher temperatures), the “reversibility of thermal denaturation / aggregation” value is “Apparent nonreversibility”. For the same molecule, the “secondary structure over ionic strength range” value in data set [4] (MOPS buffers, 10 to 750 mM ionic strength, 10 °C) was “no significant change in the secondary structure”. In [4] (thermal denaturation, pH 7.4 100 mM sodium phosphate, 10 to 80 °C), the “effect of temperature on helical content” value is “Helical content was reduced on increasing temperature”.

Take “cMyb transactivation domain (from UniProt P06876)”: the Kd with CBP KIX (Mus musculus) is 10 µM and 12.5 µM.

With “cMyb: 25 amino acid peptide from the TAD of cMyb, unlabeled”, in data set [5] (25 °C, relatively similar buffer conditions, complex with pseudo-wild-type KIX), the “fold lower binding affinity than reported here” value is on record as 3 fold. Besides, in [5] (TFE), the “decrease of dissociation rate on partial helix stabilization by TFE” value is “around 5 fold” and the “increase of association rate on partial helix stabilization by TFE” value is reported as “around 1.4 fold”. The “kon, Gianni et al.” value in data set [5] (compared at 25 °C, pseudo-wild-type his-tagged KIX) is given as “(2.5 ± 0.1) × 10^7 M^–1 s^–1”. For the same molecule, the “amino acids in a helix in the bound form” value in the data set on KIX [6] is reported as 70%. In [4] (free peptide, pH 7.4 100 mM sodium phosphate), the “residual α-helical content, unbound state (summary)” value is “around 30%”. In addition, the Kd on KIX [7] was 10 µM.

B1: barstar: two folded proteins barnase and barstar, described as ultrafast associating proteins (protein, UniProt P11540 2-90, looked up)
Barstar: KKAVINGEQIRSISDLHQTLKKELALPEYYGENLDALWDCLTGWVEYPLVLEWRQFEQSKQLTENGAESVLQVFREAKAEGCDITIILS
B1: in the data set on barnase (extrapolated to infinite ionic strength), the “basal kon, infinite ionic strength” value is “around 10^5 M^–1 s^–1”. The “kon at low ionic strength” value in the data set with barnase (low ionic strengths) was “over 5 × 10^9 M^–1 s^–1”.

{FITC}-KEKRIKELELLLMSTENELKGQQAL (peptide, UniProt P06876 291-315, looked up): in data set [8], the Kd was determined as 10.5 ± 0.7 µM.
